# Test results from PubChem BioAssay (NCI).
#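 Grown in 96-well plates, cells were treated for 48 hours with each compound at five concentrations. Insufficient inhibition: endpoint recorded as highest concentration tested. TGI marks complete inhibition of growth.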
# What was measured:
# Assay in all cases: NCI tumour cell line growth inhibition, 48 h
# [1] = system: EKVX NSCLC
# [2] = system: NCI-H460 lung
# [3] = system: SW-620 colon
# [4] = system: HS 578T breast
# [5] = system: UO-31 renal
# [6] = system: NCI-H522 lung
# [7] = system: SK-MEL-28 melanoma
# [8] = system: HCC-2998 colon
# [9] = system: BT-549 breast
# [10] = system: UACC-62 melanoma
# [11] = system: KM12 colon
# [12] = system: SNB-75 CNS
# [13] = system: TK-10 renal
# [14] = system: SNB-19 CNS
# [15] = system: RPMI-8226 leukemia
# [16] = system: NCI/ADR-RES ovarian
# [17] = system: SF-268 CNS
# [18] = system: IGROV1 ovarian
# [19] = system: OVCAR-4 ovarian
# [20] = system: SK-OV-3 ovarian
# [21] = system: MDA-N
# [22] = system: PC-3 prostate
# [23] = system: SK-MEL-5 melanoma
# [24] = system: M14 melanoma
# [25] = system: LOX IMVI melanoma
# [26] = system: MALME-3M melanoma
# [27] = system: K-562 leukemia
# [28] = system: OVCAR-3 ovarian
# [29] = system: T-47D breast
# [30] = system: SN12C renal
# [31] = system: HCT-116 colon
# [32] = system: A549 NSCLC
# [33] = system: COLO 205 colon
# [34] = system: DU-145 prostate
# [35] = system: HOP-92 NSCLC
# [36] = system: RXF 393 renal
# [37] = system: MDA-MB-231 breast
# [38] = system: A498 renal
# [39] = system: SK-MEL-2 melanoma
# [40] = system: OVCAR-8 ovarian
# [41] = system: NCI-H23 lung
# [42] = system: CAKI-1 renal
# [43] = system: SF-539 CNS
# [44] = system: HL-60(TB) leukemia
# [45] = system: 786-0 renal
# [46] = system: HCT-15 colon
# [47] = system: SF-295 CNS
# [48] = system: CCRF-CEM leukemia
# [49] = system: MDA-MB-435
# [50] = system: MOLT-4 leukemia
# [51] = system: UACC-257 melanoma
# [52] = system: U251 CNS
# [53] = system: HOP-62 NSCLC
# [54] = system: ACHN renal
# [55] = system: MCF7 breast
# [56] = system: OVCAR-5 ovarian
# [57] = system: HT29 colon
# [58] = system: SR leukemia
# [59] = system: NCI-H226 lung
compound,measurement,setting,value
CC(C)(C)C1=CC(=CC=C2C=CN(CCCCCCCCCCCO)C=C2)C=C(C(C)(C)C)C1=O,TGI,[1],5.61 µM
same,TGI,[2],4.55 µM
same,TGI,[3],3.08 µM
same,TGI,[4],4.23 µM
same,TGI,[5],3.67 µM
same,TGI,[6],1.29 µM
same,TGI,[7],3 µM
same,TGI,[8],2.27 µM
same,TGI,[9],4.44 µM
same,TGI,[10],2.96 µM
same,TGI,[11],4.4 µM
same,TGI,[12],5.4 µM
same,TGI,[13],3.67 µM
same,TGI,[14],3.15 µM
same,TGI,[15],1.94 µM
same,TGI,[16],11.7 µM
same,TGI,[17],3.83 µM
same,TGI,[18],2.26 µM
same,TGI,[19],3.57 µM
same,TGI,[20],5.81 µM
same,TGI,[21],3.04 µM
same,TGI,[22],3.68 µM
same,TGI,[23],3.31 µM
same,TGI,[24],3.57 µM
same,TGI,[25],1.69 µM
same,TGI,[26],3.51 µM
same,TGI,[27],4.87 µM
same,TGI,[28],2.87 µM
same,TGI,[29],2.7 µM
same,TGI,[30],2.73 µM
same,TGI,[31],3.05 µM
same,TGI,[32],3.58 µM
same,TGI,[33],2.82 µM
same,TGI,[34],20.7 µM
same,TGI,[35],6.16 µM
same,TGI,[36],2.47 µM
same,TGI,[37],3.28 µM
same,TGI,[38],7.3 µM
same,TGI,[39],3.5 µM
same,TGI,[40],2.1 µM
same,TGI,[41],10.6 µM
same,TGI,[42],6.7 µM
same,TGI,[43],3.12 µM
same,TGI,[44],3.71 µM
same,TGI,[45],3.94 µM
same,TGI,[46],> 100 µM
same,TGI,[47],2.95 µM
same,TGI,[48],11.7 µM
same,TGI,[49],3.4 µM
same,TGI,[50],4.74 µM
same,TGI,[51],4.4 µM
same,TGI,[52],2.68 µM
same,TGI,[53],3.63 µM
same,TGI,[54],> 25.2 µM
same,TGI,[55],1.23 µM
same,TGI,[56],6.52 µM
same,TGI,[57],> 25.7 µM
Nc1nc(Cl)cc(NCC2(CO)COC2)n1,TGI,[1],> 100 µM
same,TGI,[2],> 100 µM
same,TGI,[3],> 100 µM
same,TGI,[4],> 100 µM
same,TGI,[5],> 100 µM
same,TGI,[6],> 100 µM
same,TGI,[7],> 100 µM
same,TGI,[8],> 100 µM
same,TGI,[9],> 100 µM
same,TGI,[10],> 100 µM
same,TGI,[11],> 100 µM
same,TGI,[12],> 100 µM
same,TGI,[13],> 100 µM
same,TGI,[15],> 100 µM
same,TGI,[16],> 100 µM
same,TGI,[17],> 100 µM
same,TGI,[18],> 100 µM
same,TGI,[19],> 100 µM
same,TGI,[20],> 100 µM
same,TGI,[21],> 100 µM
same,TGI,[58],> 100 µM
same,TGI,[22],> 100 µM
same,TGI,[23],> 100 µM
same,TGI,[25],> 100 µM
same,TGI,[26],> 100 µM
same,TGI,[27],> 100 µM
same,TGI,[28],> 100 µM
same,TGI,[29],> 100 µM
same,TGI,[30],> 100 µM
same,TGI,[31],> 100 µM
same,TGI,[32],> 100 µM
same,TGI,[33],> 100 µM
same,TGI,[34],> 100 µM
same,TGI,[36],> 100 µM
same,TGI,[37],> 100 µM
same,TGI,[38],> 100 µM
same,TGI,[39],> 100 µM
same,TGI,[40],> 100 µM
same,TGI,[41],> 100 µM
same,TGI,[42],> 100 µM
same,TGI,[43],> 100 µM
same,TGI,[44],> 100 µM
same,TGI,[45],> 100 µM
same,TGI,[46],> 100 µM
same,TGI,[47],> 100 µM
same,TGI,[48],> 100 µM
same,TGI,[49],> 100 µM
same,TGI,[59],> 100 µM
same,TGI,[51],> 100 µM
same,TGI,[52],> 100 µM
same,TGI,[53],> 100 µM
same,TGI,[54],> 100 µM
same,TGI,[55],> 100 µM
same,TGI,[56],> 100 µM
same,TGI,[57],> 100 µM
O=C(O)C1C(C(=O)O)C(C(=O)O)C1C(=O)O (centres undefined),TGI,[1],> 100 µM
same,TGI,[2],> 100 µM
same,TGI,[3],> 100 µM
same,TGI,[4],> 100 µM
same,TGI,[5],> 100 µM
same,TGI,[6],> 100 µM
same,TGI,[7],> 100 µM
same,TGI,[9],> 100 µM
same,TGI,[10],> 100 µM
same,TGI,[11],> 100 µM
same,TGI,[12],> 100 µM
same,TGI,[13],> 100 µM
same,TGI,[14],> 100 µM
same,TGI,[15],> 100 µM
same,TGI,[16],> 100 µM
same,TGI,[17],> 100 µM
same,TGI,[18],> 100 µM
same,TGI,[19],> 100 µM
same,TGI,[20],> 100 µM
same,TGI,[21],> 100 µM
same,TGI,[58],> 100 µM
same,TGI,[22],> 100 µM
same,TGI,[23],> 100 µM
same,TGI,[24],> 100 µM
same,TGI,[25],> 100 µM
same,TGI,[26],> 100 µM
same,TGI,[27],> 100 µM
same,TGI,[28],> 100 µM
same,TGI,[29],> 100 µM
same,TGI,[30],> 100 µM
same,TGI,[31],> 100 µM
same,TGI,[32],> 100 µM
same,TGI,[33],> 100 µM
same,TGI,[34],> 100 µM
same,TGI,[35],> 100 µM
same,TGI,[36],> 100 µM
same,TGI,[37],> 100 µM
same,TGI,[38],> 100 µM
same,TGI,[39],> 100 µM
same,TGI,[40],> 100 µM
same,TGI,[41],> 100 µM
same,TGI,[42],> 100 µM
same,TGI,[43],> 100 µM
same,TGI,[45],> 100 µM
same,TGI,[46],> 100 µM
same,TGI,[47],> 100 µM
same,TGI,[48],> 100 µM
same,TGI,[49],> 100 µM
same,TGI,[59],> 100 µM
same,TGI,[50],> 100 µM
same,TGI,[51],> 100 µM
same,TGI,[52],> 100 µM
same,TGI,[53],> 100 µM
same,TGI,[54],> 100 µM
same,TGI,[55],> 100 µM
same,TGI,[56],> 100 µM
same,TGI,[57],> 100 µM
CC(=O)[C@]1(O)Cc2c(O)c3c(c(O)c2C(OC2OC(C)C(O)C(O)C2F)C1)C(=O)c1ccccc1C3=O (some centres undefined),TGI,[1],14.7 µM
same,TGI,[4],1.62 µM
same,TGI,[5],0.0279 µM
same,TGI,[6],2.28 µM
same,TGI,[7],2.7 µM
same,TGI,[8],2.3 µM
same,TGI,[9],2.44 µM
same,TGI,[10],0.724 µM
same,TGI,[11],5.64 µM
same,TGI,[12],0.837 µM
same,TGI,[13],71.3 µM
same,TGI,[15],2.36 µM
same,TGI,[16],3.78 µM
same,TGI,[17],2.28 µM
same,TGI,[18],24.9 µM
same,TGI,[19],11.2 µM
same,TGI,[20],45.9 µM
same,TGI,[21],2.67 µM
same,TGI,[22],3.3 µM
same,TGI,[23],0.68 µM
same,TGI,[24],1.55 µM
same,TGI,[25],11.6 µM
same,TGI,[26],1.48 µM
same,TGI,[27],1.25 µM
same,TGI,[28],6.64 µM
same,TGI,[29],7.8 µM
same,TGI,[30],12.4 µM
same,TGI,[31],6.83 µM
same,TGI,[33],3.47 µM
same,TGI,[34],45.8 µM
same,TGI,[35],3.92 µM
same,TGI,[36],1.89 µM
same,TGI,[37],7.21 µM
same,TGI,[38],0.398 µM
same,TGI,[39],2.88 µM
same,TGI,[40],16.1 µM
same,TGI,[41],0.303 µM
same,TGI,[43],0.374 µM
same,TGI,[44],< 0.0303 µM
same,TGI,[45],> 37.1 µM
same,TGI,[47],0.324 µM
same,TGI,[48],0.0642 µM
same,TGI,[49],1.95 µM
same,TGI,[59],0.341 µM
same,TGI,[50],0.0577 µM
same,TGI,[51],2.38 µM
same,TGI,[52],0.996 µM
same,TGI,[53],0.629 µM
same,TGI,[55],> 45.2 µM
same,TGI,[56],1.31 µM
